Where a name gives a salt, the structure may show the parent alone.
Tested on: anesthetized rat
Experiment: Anesthetized rat spirometry screening assay
Assay type: in vivo
Conditions: for AUC MV Inc (2 min) (ratio vs. std*): 2 minute AUC of minute volume increase vs. comparator N-[2,6-di-(n-propylamino)-[1,3]pyrimidin-4-yl]-N,O-dimethyl-hydroxylamine; for VE Peak (% Inc.): peak minute ventilation increase, urethane-anesthetized rat, i.v. bolus, screening doses 0.1 and 0.3 mg/kg
Description: Effect of Compounds of the Invention on Respiratory Rate (RR), Tidal Volume (VT), and the Product Minute Volume Using an Anesthetized Rat Spirometry Screening Assay
Anesthetized rats provide a quick method of screening compounds for respiratory and cardiovascular activity. In contrast to the conscious rat model, this model offers an experimental set up with less variation in the baseline cardiovascular and respiratory measures. Compounds screened in this assay may be examined in a conscious rat model.
Rats were initially anesthetized with 3% isoflurane (inhaled) and femoral artery and vein cannulas were surgically inserted. Once cannulated, the rats were transitioned to urethane anesthesia (1.5 g/kg; i.v.) and a tracheal cut-down was performed. After placing the tracheal cannula, it was connected to a pneumotachometer to record respiratory airflow from which respiratory rate (RR), tidal volume (VT), and their product minute volume were derived. After the surgical preparation was complete, animals were allowed to stabilize for 30 minutes while respiratory rate, tidal volume, minute volume, blood pressure and heart rate were recorded continuously. Arterial blood gases (ABG) were obtained from arterial blood collected from the femoral artery. ABG measurements were taken before and 6 minutes after vehicle and each dose of compound administered. Compounds being screened were administered via bolus injections through the venous cannula followed by a saline flush (total time of administration is approximately 30 seconds), and the animal was monitored for at least 6 minutes for changes in cardiovascular efforts. Compounds were prepared in formulations identified to ensure optimal solubility. As such, vehicle controls were matched for the formulation of each compound tested. Dosing of the compound being screened was 0.1 and 0.3 mg/kg. The next dose was not administered until all cardiovascular and respiratory measures had returned to baseline levels. The positive control compounds used were N-[4,6-di-(n-propylamino)-[1,3,5]triazin-2-yl]-N,O-dimethyl-hydroxylamine or N-[2,6-di-(n-propylamino)-[1,3]pyrimidin-4-yl]-N,O-dimethyl-hydroxylamine (both administered at the end of each screening experiment (0.3 mg/kg dose) to validate the experiment and also to serve as a measure with which the compound being screened could be compared.
Data were analyzed by collecting cardiovascular and respiratory data in 30 second averages (BINs). Data were plotted 2 minutes before challenge and then 6 minutes after challenge.

| Compound | AUC MV Inc (2 min) (ratio vs. std*) [ratio vs. std] | VE Peak (% Inc.) |
| --- | --- | --- |
| CCCN(C)c1nc(N)c2nc(N(C)C)nc(NC)c2n1.Cl [Compound 56a, N^2,N^2,N^4,N^6-Tetramethyl-N^6-n-propyl-pyrimido[5,4-d]pyrimidine-2,4,6,8-tetraamine hydrochloride] | 0.79 | – |
| C=CCN(CC=C)c1nc(NC)c2nc(NCCC)nc(NC)c2n1 [Compound 58a, N^2,N^2-Diallyl-N^4,N^8-dimethyl-N^6-n-propyl-pyrimido[5,4-d]pyrimidine-2,4,6,8-tetraamine] | 0.18 | – |
| CCCNc1nc(NC)c2nc(NCCOC(C)C)nc(NC)c2n1 [Compound 62a, N^2-(2-Isopropoxy-ethyl)-N^4,N^8-dimethyl-N^6-n-propyl-pyrimido[5,4-d]pyrimidine-2,4,6,8-tetraamine] | 0.55 | – |
| CCCNc1nc(NC)c2nc(N(C)CCN(C)C)nc(NC)c2n1 [Compound 64a, 2-[N-(2-Dimethylamino-ethyl)-N-methyl]amino-N^4,N^8-dimethyl-N^6-n-propyl-pyrimido[5,4-d]pyrimidine-4,6,8-triamine] | 0.01 | 9 |
| CCCNc1nc(NC)c2nc(N(CCO)CCO)nc(NC)c2n1.Cl [Compound 66a, 2-[(4,8-Bis-methylamino-6-n-propylamino-pyrimido[5,4-d]pyrimidin-2-yl)-(2-hydroxy-ethyl)-amino]-ethanol hydrochloride] | 0.14 | – |
| CCCNc1nc(NC)c2nc(N(CCOC)CCOC)nc(NC)c2n1 [Compound 68a, N^2,N^2-Bis-(2-methoxyethyl)-N^4,N^8-dimethyl-N^6-n-propyl-pyrimido[5,4-d]pyrimidine-2,4,6,8-tetraamine] | 0.00 | – |
| CCCNc1nc(NC)c2nc(N3CCS(=O)(=O)CC3)nc(NC)c2n1.Cl [Compound 75a, N^2-6-n-Propylamino-N^4,N^8-dimethyl-2-(1,1-dioxo-thiomorpholin-4-yl)-pyrimido-[5,4-d]pyrimidine-2,4,8-triamine hydrochloride] | 0.02 | 2 |
| CCCNc1nc(NC)c2nc(N3CCC(F)(F)CC3)nc(NC)c2n1 [Compound 77a, N^2-n-Propyl-N^4,N^8-dimethyl-6-(4,4-difluoro-piperidin-1-yl)-pyrimido[5,4-d]pyrimidine-2,4,8-triamine hydrochloride] | 0.55 | – |
| CNc1nc(NCC(C)C)nc2c(NC)nc(NCC(C)C)nc12.Cl [Compound 87a, N^2,N^6-Diisobutyl-N^4,N^8-dimethyl-pyrimido[5,4-d]pyrimidine-2,4,6,8-tetraamine hydrochloride] | 0.18 | – |
| C=CCNc1nc(NC)c2nc(NCC=C)nc(NC)c2n1.Cl [Compound 89a, N^2,N^6-Diallyl-N^4,N^8-dimethyl-pyrimido[5,4-d]pyrimidine-2,4,6,8-tetraamine hydrochloride] | 0.92 | – |
| CCCNc1nc(NC)c2nc(OCCC)nc(NC)c2n1 [Compound 95a, N^4,N^8-Dimethyl-6-propoxy-N^2-n-propyl-pyrimido[5,4-d]pyrimidine-2,4,8-triamine] | 0.36 | – |
| CCCNc1nc(NC)c2nc(SCCC)nc(NC)c2n1 [Compound 97a, N^4,N^8-Dimethyl-N^2-n-propyl-6-propylsulfanyl-pyrimido[5,4-d]pyrimidine-2,4,8-triamine] | 0.26 | – |
| CCCNc1nc(NC)c2nc(OCc3ccccc3)nc(NC)c2n1 [Compound 99a, 6-Benzyloxy-N^4,N^8-Dimethyl-N^2-n-propyl-pyrimido[5,4-d]pyrimidine-2,4,8-triamine] | 0.19 | – |
| CCCNc1nc(NC)c2nc(O)nc(NC)c2n1 [Compound 101, 4,8-Bis-methylamino-6-propylamino-pyrimido[5,4-d]pyrimidin-2-ol] | 0.00 | – |
| CCCNc1nc(NC)c2nc(C#N)nc(NC)c2n1 [Compound 103a, 4,8-Bis-methylamino-6-n-propylamino-pyrimido[5,4-d]pyrimidine-2-carbonitrile] | 0.00 | – |
| CCCNc1nc(NC)c2nc(CN)nc(NC)c2n1 [Compound 105a, N^4,N^8-Dimethyl-N^2-n-propyl-6-(aminomethyl)-pyrimido[5,4-d]pyrimidine-2,4,8-triamine] | 0.00 | – |
| CCCNc1nc(NC)c2nc(C(N)=O)nc(NC)c2n1 [Compound 107a, 6-Carbamoyl-N^4,N^8-dimethyl-N^2-n-propyl-pyrimido[5,4-d]pyrimidine-2,4,8-triamine] | 0.00 | – |
| CCCN=C(N)c1nc(NC)c2nc(NCCC)nc(NC)c2n1 [Compound 110a, N-(n-Propyl)-[4,8-Bis-methylamino-6-n-propylamino-pyrimido[5,4-d]pyrimidin-2-yl]-amidine] | 0.00 | 0 |
| CCCNc1nc(NC)c2ncnc(NC)c2n1 [Compound 116a, N^4,N^8-Dimethyl-N^2-n-propyl-pyrimido[5,4-d]pyrimidine-2,4,8-triamine] | 0.00 | – |
| CCCNc1nc(NC)nc2c(NCCC)nc(C#N)nc12 [Compound 122a, 6-Methylamino-4,8-bis-n-propylamino-pyrimido[5,4-d]pyrimidine-2-carbonitrile] | 0.00 | – |
| CCNc1nc(NCC)c2nc(NCC)nc(NCC)c2n1.Cl [Compound 125a, N^2,N^4,N^6,N^8-Tetraethyl-pyrimido[5,4-d]pyrimidine-2,4,6,8-tetraamine hydrochloride] | 0.80 | – |
| CCCNc1nc(NCC)c2nc(NCCC)nc(NCC)c2n1 [Compound 127a, N^4,N^8-Diethyl-N^2,N^6-di-n-propyl-pyrimido[5,4-d]pyrimidine-2,4,6,8-tetraamine] | 0.86 | – |
| CCNc1nc(NCC2CC2)nc2c(NCC)nc(NCC3CC3)nc12 [Compound 129a, N^2,N^6-Bis-cyclopropylmethyl-N^4,N^8-diethyl-pyrimido[5,4-d]pyrimidine-2,4,6,8-tetraamine] | 0.25 | – |
| CCNc1nc(NCC2CC2)c2nc(N(CC)CC)nc(NCC3CC3)c2n1.Cl [Compound 135a, N^2,N^2,N^6-Triethyl-N^4,N^8-bis-cyclopropylmethyl-pyrimido[5,4-d]pyrimidine-2,4,6,8-tetraamine hydrochloride] | 0.00 | – |
| CCCNc1nc(N(C)C)nc2c(NCCC)nc(N(C)C)nc12 [Compound 142a, N^2,N^2,N^6,N^6-Tetramethyl-N^4,N^8-di-n-propyl-pyrimido[5,4-d]pyrimidine-2,4,6,8-tetraamine] | 0.05 | – |
| C=CCNc1nc(NCC=C)c2nc(N3CCN(Cc4ccc(F)cc4)CC3)nc(NCC=C)c2n1.Cl.Cl [Compound 148a, N^2,N^4,N^8-Triallyl-6-[4-(4-fluorobenzyl)-piperazin-1-yl]-pyrimido[5,4-d]pyrimidine-2,4,8-triamine dihydrochloride] | 0.00 | – |
| C=CCNc1nc(NCC=C)c2nc(N3CCN(C(c4ccc(F)cc4)c4ccc(F)cc4)CC3)nc(NCC=C)c2n1 [Compound 150a, N^2,N^4,N^8-Triallyl-6-{4-[bis-(4-fluorophenyl)-methyl]-piperazin-1-yl}-pyrimido[5,4-d]pyrimidine-2,4,8-triamine] | 0.00 | – |
| CCCNc1nc(N(CC)CC)nc2c(NCCC)nc(NCC)nc12 [Compound 152a, N^2,N^2,N^6-Triethyl-N^4,N^8-di-n-propyl-pyrimido[5,4-d]pyrimidine-2,4,6,8-tetraamine] | 0.00 | – |
| CCCNc1nc(NC)c2nc(NCC(=O)O)nc(NC)c2n1 [Compound 154, (4,8-bis-methylamino-6-n-propylamino-pyrimido[5,4-d]pyrimidin-2-ylamino)-acetic acid] | 0.00 | – |
| CCCNC(=O)CNc1nc(NC)c2nc(NCCC)nc(NC)c2n1.Cl [Compound 157a, N-n-Propyl-[2-(4,8-bis-methylamino-6-propylamino-pyrimido[5,4-d]pyrimidin-2-ylamino)]-acetamide hydrochloride] | 0.04 | – |

Source: US9643971B2 (GALLEON PHARMACEUTICALS, INC., priority 2013, dated 2017)
